Source: patent US20040214799A1, “Cancerous metastasis inhibitors containing carbacyclic phosphatidic acid derivatives” (priority 2001, published 2004)
Several values for one entry are separate records, joined by “and”; a condition that tells them apart may be missing. Equal entries are not always repeated.

Test system: Mouse malignant melanoma B16-F0
Assay: B16 melanoma hematogenous lung metastasis model; for Metastatic nodules, Abdominal cavity Adipose tissue: key: −: Absent; +: Present; for Metastatic nodules, Abdominal cavity Adrenal gland: key: −: Absent; +: Present; for Metastatic nodules, Abdominal cavity Diaphragm: key: −: Absent; +: Present; for Metastatic nodules, Abdominal cavity Kidney: key: −: Absent; +: Present; for Metastatic nodules, Abdominal cavity Ovary: key: −: Absent; +: Present; for Metastatic nodules, Abdominal cavity Spleen: key: −: Absent; +: Present; for Metastatic nodules, Thoracic cavity: key: −: Absent; +: Present; for Metastatic nodules, Tissue around glandual clitoris: key: −: Absent; +: Present
Assay type: in vivo
Details: for invasion of lymphocytes into metastatic lesions observed in cases: animals with metastatic lesions; for Metastatic nodules, Abdominal cavity Adipose tissue / Metastatic nodules, Abdominal cavity Adrenal gland / Metastatic nodules, Abdominal cavity Diaphragm / Metastatic nodules, Abdominal cavity Kidney / Metastatic nodules, Abdominal cavity Ovary / Metastatic nodules, Abdominal cavity Spleen / Metastatic nodules, Thoracic cavity / Metastatic nodules, Tissue around glandual clitoris: autopsy day 14, individual animals; for Number of lung tumor nodules, Range (mininum-maximum) / Number of mice having lung tumor nodules: day 14, N 6; for Number of lung tumor nodules: day 14, mean ± S.D.; for Number of lung tumor nodules / Number of mice having metastatic lesions: N 6; for Number of mice having metastatic lesions / Findings: Invasion of lymphocytes into melanoma metastatic lesion: lung histopathology; for Findings: Invasion of lymphocytes into melanoma metastatic lesion: individual animals; for Number of metastatic lesions per section, Large size: major diameter 0.65 mm ≦ and <1.3 mm; for Number of metastatic lesions per section, Large size / Number of metastatic lesions per section, Small size / Number of metastatic lesions per section, Total: mean ± S.D.; for Number of metastatic lesions per section, Small size: major diameter <0.65 mm, left lobe and posterior lobe
Description: cPA-19 and cPA-20 were used as test substances. 0.1 w/v % BSA/PBS which was prepared by dissolving Albumin, Bovine [essentially Fatty Acid Free] (BSA, Lot No. 89H7604, Sigma chemical company) in Ca^2+ and Mg^2+ free PBS (pH 7.2), was used as a medium After preparation, the solution was sterilized by filtration using a filter (0.22 μm, Millipore). Preparation was performed when used. cPA-5 was used as a positive control substance.
A medium was added in a volume required for a test substance or a positive control substance. Dissolution was performed by ultrasonication, thereby preparing a 0.16 mg/mL solution. The 0.16 mg/mL solution containing a test substance was diluted with a medium, thereby preparing 0.08 and 0.02 mg/mL solutions. All mixtures were prepared when used.
Mice were purchased from CHARLES RIVER JAPAN. INC. The line employed herein was C57BL/6NCrj (sexuality: female). The number of animals kept in stock was 60, and the age of these animals when kept in stock was 4 weeks. […] The environmental conditions for the test system were as follows:
Mouse malignant melanoma B16-F0 was used as a tumor cell. The cell was purchased from Dainippon Pharmaceutical Co., Ltd.
Dulbecco's Modified Eagle's Media containing 10% feral bovine serum and kanamycin were used for culture. […] A medium was added to stop the action of trypsin while pipetting, thereby preparing a cell suspension. The suspension was diluted by one-tenth with a medium for culturing, followed by subculturing until it reached a volume sufficient for grafting.
A cell suspension was prepared by the same technique as the subculture method. Specifically, the cells were washed with a Ca^2+ and Mg^2+ free phosphate buffer [PBS(−)], and then harvested. The harvested cells were suspended in a 10 mL of PBS(−), thereby preparing a cell suspension. The number of cells in the cell suspension was measured to obtain the total cell number. 50 μL of the cell suspension, 100 μL of 0.4% trypan blue liquid and 100 μL of PBS(−) were mixed, and then viable count was measured. The survival rate of the cells was calculated from the viable count and total cell number.
Based on the body weight on the day of the administration of the test substance, mice were grouped into 8 test groups according to the stratified continuous randomization method as shown in Table 2 below.
The mixture was administered via the caudal vein. The number of grafted cells was 5×10^5 cells/body. The dose of the test substance was 0.001, 0.004 or 0.008 mg/body, and the dose of the positive control substance was 0.008 mg/body.
On day 14 after the administration of the test substance, blood was collected from the posterior portion of the abdominal vena cava under isoflurane anesthesia. After the mice were sacrificed by blood-letting, the presence or absence of intrapleural and intraperitoneal metastatic nodules was confirmed. Lungs were extracted, and then fixed with a 10% neutral buffered formalin solution. The number of nodules resulting from lung metastasis was measured under a stereoscopic microscope (magnification: 10 times).
After the measurement of the number of nodules resulting from lung metastasis, samples were paraffin-embedded, and then thin sections were prepared. Hematoxylin eosinic-stained samples were prepared from these sections. The number of metastatic lesions in the certain portions of the left lobe and the posterior lobe was measured, and then the lesions were sorted by size. On the basis of the diameter (0.65 mm) of an object lens (×40), metastatic lesions with major diameters of less than 0.65 mm were classified as having a small size, and those with major diameters of between 0.65 mm or more and less than 1.30 mm were classified as having a large size. Furthermore, the degree of invasion of lymphocytes into metastatic lesions was confirmed qualitatively.
The representative value of each test group was denoted as mean±standard deviation (mean±S.D.). Differences in mean values were examined as follows.

[1] = 0.001 mg/body i.v., autopsy, 6 mice
[2] = 0.004 mg/body i.v., autopsy, 6 mice
[3] = 0.008 mg/body i.v., autopsy, 6 mice

## carba-Ole-cPA [cPA-19]
0.001 mg/body i.v.
  invasion of lymphocytes into metastatic lesions observed in cases: 1 out of 6
  Metastatic nodules, Abdominal cavity Adipose tissue: + and − (5×)
  Metastatic nodules, Abdominal cavity Adrenal gland: + and − (5×)
  Metastatic nodules, Abdominal cavity Diaphragm: −
  Metastatic nodules, Abdominal cavity Kidney: + (2×) and − (4×)
  Metastatic nodules, Abdominal cavity Ovary: + (2×) and − (4×)
  Metastatic nodules, Abdominal cavity Spleen: − (5×) and +
  Metastatic nodules, Thoracic cavity: − (5×) and +
  Metastatic nodules, Tissue around glandual clitoris: −
  Number of lung tumor nodules, Range (mininum-maximum): 37-66
  Number of mice having lung tumor nodules: 6
  Number of lung tumor nodules: 54 ± 12
  Number of mice having metastatic lesions: 6
  Findings: Invasion of lymphocytes into melanoma metastatic lesion: − (5×) and +
  Number of metastatic lesions per section, Large size: 0.7 ± 0.8
  Number of metastatic lesions per section, Small size: 3.0 ± 1.3
  Number of metastatic lesions per section, Total: 3.7 ± 1.8
[1]
  cases with metastatic nodules in adipose tissue: 1 case
  cases with metastatic nodules in the adrenal gland: 1 case
  cases with metastatic nodules in the kidney: 2 cases
  cases with metastatic nodules in the ovary: 2 cases
  cases with metastatic nodules in the spleen: 1 case
  cases with metastatic nodules in the thoracic cavity: 1 case
0.004 mg/body i.v.
  number of metastatic nodules of B16-F0 in the lungs versus medium group (in words): significant decrease in the number of metastatic nodules
  invasion of lymphocytes into metastatic lesions observed in cases: no invasions were observed in 2 cases
  Metastatic nodules, Abdominal cavity Adipose tissue: − (5×) and +
  Metastatic nodules, Abdominal cavity Adrenal gland: − (5×) and +
  Metastatic nodules, Abdominal cavity Diaphragm: −
  Metastatic nodules, Abdominal cavity Kidney: −
  Metastatic nodules, Abdominal cavity Ovary: −
  Metastatic nodules, Abdominal cavity Spleen: + and − (5×)
  Metastatic nodules, Thoracic cavity: −
  Metastatic nodules, Tissue around glandual clitoris: −
  Number of lung tumor nodules, Range (mininum-maximum): 2-6
  Number of mice having lung tumor nodules: 6
  Number of lung tumor nodules: 4 ± 2
  Number of mice having metastatic lesions: 2 &
  Findings: Invasion of lymphocytes into melanoma metastatic lesion: −
  Number of metastatic lesions per section, Large size: 0 ± 0!!
  Number of metastatic lesions per section, Small size: 0.3 ± 0.5
  Number of metastatic lesions per section, Total: 0.3 ± 0.5!
[2]
  cases with metastatic nodules in adipose tissue: 1 case
  cases with metastatic nodules in the adrenal gland: 1 case
  cases with metastatic nodules in the spleen: 1 case
  metastatic nodules in the thoracic cavity: no metastatic nodules were observed
0.008 mg/body i.v.
  metastasis / number of metastatic nodules in the lungs versus medium group (in words): almost completely suppressed metastasis
  Metastatic nodules, Abdominal cavity Adipose tissue: −
  Metastatic nodules, Abdominal cavity Adrenal gland: −
  Metastatic nodules, Abdominal cavity Diaphragm: −
  Metastatic nodules, Abdominal cavity Kidney: −
  Metastatic nodules, Abdominal cavity Ovary: −
  Metastatic nodules, Abdominal cavity Spleen: − (5×) and +
  Metastatic nodules, Thoracic cavity: −
  Metastatic nodules, Tissue around glandual clitoris: −
  Number of lung tumor nodules, Range (mininum-maximum): 0
  Number of mice having lung tumor nodules: 0 &&
  Number of lung tumor nodules: 0 ± 0
  Number of mice having metastatic lesions: 0 &&
  Number of metastatic lesions per section, Large size: 0 ± 0!!
  Number of metastatic lesions per section, Small size: 0 ± 0!
  Number of metastatic lesions per section, Total: 0 ± 0!!
[3]
  cases with metastatic nodules in the spleen: 1 case
  metastatic nodules in the thoracic cavity: no metastatic nodules were observed
0.001, 0.004 and 0.008 mg/body i.v.
  number of mice having intrapleural or intraperitoneal metastatic nodules, dose dependence (in words): decreased as the dose increased
0.004 and 0.008 mg/body i.v.
  action of suppressing the lung metastasis of B16-F0 compared with cPA-5: stronger than that of cPA-5
